Values joined by “and” are separate entries in the source; they are usually repeats but may differ in a detail not shown here. Equal values may be shown once.
Legend:
HCT116 cells [1] = experiment: qPCR array of human cancer drug target genes; format: cell-based; set-up: key to RQ, gene BCL2 / RQ, gene IGF1R / RQ, gene KDR / RQ, gene EGFR / RQ, gene CTSB / RQ, gene RHOA / RQ, gene ESR1 / RQ, gene MDM2 / RQ, gene MDM4 / RQ, gene TOP2A / RQ, gene TOP2B / RQ, gene ATF2 / RQ, gene NFKB1 / RQ, gene TP53 / RQ, gene AURKC / RQ, gene CDC25A / RQ, gene CDK1 / RQ, gene CDK2 / RQ, gene CDK5 / RQ, gene CDK8 / RQ, gene NTN3 / RQ, gene HRAS / RQ, gene KRAS: 2^−ΔΔCT relative quantification vs DMSO control (calibrator = 1); conditions: 10 µM, 12 h; CTL = 1.0
Protocol: Total RNA was isolated using the RNeasy Plus Mini Kit (Qiagen; Hilden, Germany) according to the manufacturer’s instructions. The RNA was tested for purity and quantified using a NanoDrop® 1000 spectrophotometer (Thermo Fisher Scientific, Waltham, Massachusetts, USA). The Superscript VILOTM Kit was used for RNA reverse transcription (Invitrogen Corporation; Waltham, MA, USA). TaqMan® array human cancer drug targets 96-well plate, fast (ID RPRWENH, Applied BiosystemsTM, Foster City, CA, USA) was used for gene expression quantification by qPCR. The reactions were carried out in an ABI ViiA7 system (Applied BiosystemsTM).
The cycle conditions were 2 min at 50 °C, 10 min at 95 °C, and 40 cycles of 15 s at 95 °C and 1 min at 60 °C. All experiments were carried out in DNase/RNase-free environments. The 2^−ΔΔCT method was used to calculate the relative quantification (RQ) of mRNA expression using Gene Expression SuiteTM Software (Applied BiosystemsTM), and cells treated with the negative control (0.2% DMSO) served as a calibrator. The RQs of the reference genes HPRT1, TFRC and YWHAZ were used to normalize the reactions.

HCT116 cells [2] = experiment: CD133 expression by flow cytometry; format: cell-based, human; conditions: 10 μM, 24 h; control 32.0%
Protocol: For cell surface protein staining, cells were washed with incubation buffer (0.5% bovine serum albumin in PBS), and then antibodies were added and incubated for 1 h at room temperature. The cells were then washed with PBS, and cell fluorescence was measured using flow cytometry. To select viable cells for quantification of CD133-positive cells, YO-PRO-1 (Sigma-Aldrich Co.) was used.

[3] = test system: HepG2 human hepatocellular carcinoma cells; conditions: HepG2 in monolayers or 3D multicellular cancer spheroids; cited from earlier work

For cis-[Ru(phen)2(xant)](PF6) [RXC], the “RQ, gene ABCC1” value (HCT116 cells [1]) was 0.777, the “RQ, gene AKT1” value (HCT116 cells [1]) was 0.624 and the “RQ, gene AKT2” value (HCT116 cells [1]) was 0.896. For the same substance, the “RQ, gene ATF2” value (HCT116 cells [1]) was 0.856, the “RQ, gene AURKA” value (HCT116 cells [1]) was 0.343 and the “RQ, gene AURKB” value (HCT116 cells [1]) was 0.562. For the same substance, the “RQ, gene AURKC” value (HCT116 cells [1]) was 0.498, the “RQ, gene BCL2” value (HCT116 cells [1]) was 0.944 and the “RQ, gene BIRC5” value (HCT116 cells [1]) was 0.499. For the same substance, the “RQ, gene CDC25A” value (HCT116 cells [1]) was 1.174, the “RQ, gene CDK1” value (HCT116 cells [1]) was 1.021 and the “RQ, gene CDK2” value (HCT116 cells [1]) was 1.057. The “RQ, gene CDK4” value (HCT116 cells [1]) was 1.065, the “RQ, gene CDK5” value (HCT116 cells [1]) was 0.446 and the “RQ, gene CDK7” value (HCT116 cells [1]) was 1.621. The “RQ, gene CDK8” value (HCT116 cells [1]) was 0.943, the “RQ, gene CDK9” value (HCT116 cells [1]) was 0.986 and the “RQ, gene CTSB” value (HCT116 cells [1]) was 1.307. The “RQ, gene CTSD” value (HCT116 cells [1]) was 0.826, the “RQ, gene CTSL” value (HCT116 cells [1]) was 1.073 and the “RQ, gene CTSS” value (HCT116 cells [1]) was 0.500. For the same substance, the “RQ, gene EGFR” value (HCT116 cells [1]) was 1.135, the “RQ, gene ERBB2” value (HCT116 cells [1]) was 0.312 and the “RQ, gene ERBB3” value (HCT116 cells [1]) was 0.814. The “RQ, gene ESR1” value (HCT116 cells [1]) was 1.523, the “RQ, gene ESR2” value (HCT116 cells [1]) was 1.673 and the “RQ, gene FLT4” value (HCT116 cells [1]) was 3.841. The “RQ, gene GRB2” value (HCT116 cells [1]) was 1.220, the “RQ, gene GSTP1” value (HCT116 cells [1]) was 0.609 and the “RQ, gene HDAC1” value (HCT116 cells [1]) was 0.509. The “RQ, gene HDAC2” value (HCT116 cells [1]) was 0.509, the “RQ, gene HDAC3” value (HCT116 cells [1]) was 0.879 and the “RQ, gene HDAC4” value (HCT116 cells [1]) was 1.233. The “RQ, gene HDAC6” value (HCT116 cells [1]) was 0.969, the “RQ, gene HDAC7” value (HCT116 cells [1]) was 0.975 and the “RQ, gene HDAC8” value (HCT116 cells [1]) was 0.826. For the same substance, the “RQ, gene HDAC11” value (HCT116 cells [1]) was 1.433, the “RQ, gene HIF1A” value (HCT116 cells [1]) was 0.663 and the “RQ, gene HRAS” value (HCT116 cells [1]) was 1.867. For the same substance, the “RQ, gene HSP90AA1” value (HCT116 cells [1]) was 0.353 and 0.35, the “RQ, gene HSP90B1” value (HCT116 cells [1]) was 0.285 and 0.28 and the “RQ, gene IGF1R” value (HCT116 cells [1]) was 1.146. The “RQ, gene IRF5” value (HCT116 cells [1]) was 1.472, the “RQ, gene KDR” value (HCT116 cells [1]) was 0.896 and the “RQ, gene KRAS” value (HCT116 cells [1]) was 2.847. The “RQ, gene MDM2” value (HCT116 cells [1]) was 2.327, the “RQ, gene MDM4” value (HCT116 cells [1]) was 1.960 and the “RQ, gene MTOR” value (HCT116 cells [1]) was 0.595. For the same substance, the “RQ, gene NFKB1” value (HCT116 cells [1]) was 1.055, the “RQ, gene NRAS” value (HCT116 cells [1]) was 0.893 and the “RQ, gene NTN3” value (HCT116 cells [1]) was 2.364. The “RQ, gene PARP1” value (HCT116 cells [1]) was 0.485, the “RQ, gene PARP4” value (HCT116 cells [1]) was 0.791 and the “RQ, gene PDGFRB” value (HCT116 cells [1]) was 2.249. For the same substance, the “RQ, gene PIK3C2A” value (HCT116 cells [1]) was 1.177, the “RQ, gene PIK3C3” value (HCT116 cells [1]) was 1.485 and the “RQ, gene PIK3CA” value (HCT116 cells [1]) was 0.956. For the same substance, the “RQ, gene PLK1” value (HCT116 cells [1]) was 0.890, the “RQ, gene PLK2” value (HCT116 cells [1]) was 1.023 and the “RQ, gene PLK3” value (HCT116 cells [1]) was 1.749. The “RQ, gene PLK4” value (HCT116 cells [1]) was 1.081, the “RQ, gene PRKCA” value (HCT116 cells [1]) was 0.567 and the “RQ, gene PRKCB” value (HCT116 cells [1]) was 0.993. For the same substance, the “RQ, gene PRKCD” value (HCT116 cells [1]) was 1.557, the “RQ, gene PRKCE” value (HCT116 cells [1]) was 1.461 and the “RQ, gene PTGS2” value (HCT116 cells [1]) was 1.461. The “RQ, gene RHOA” value (HCT116 cells [1]) was 0.937, the “RQ, gene RHOB” value (HCT116 cells [1]) was 1.762 and the “RQ, gene TERT” value (HCT116 cells [1]) was 0.866. The “RQ, gene TNKS” value (HCT116 cells [1]) was 2.951, the “RQ, gene TOP2A” value (HCT116 cells [1]) was 0.769 and the “RQ, gene TOP2B” value (HCT116 cells [1]) was 1.055. The “RQ, gene TP53” value (HCT116 cells [1]) was 1.058, the “RQ, gene TXN” value (HCT116 cells [1]) was 1.184 and the “RQ, gene TXNRD1” value (HCT116 cells [1]) was 3.038. For the same substance, the “HCT116 CD133-positive cells” value (HCT116 cells [2]) was 10.1% and the cytotoxicity [3] was “potent cytotoxicity”.

From paper PMC10724293, “New ruthenium-xanthoxylin complex eliminates colorectal cancer stem cells by targeting the heat shock protein 90 chaperone” (Cell Death & Disease, 2023)
